The supplement of paper PMC10307832

Tests used:
Assay in all cases: relative viability (nuclei count vs DMSO), 5 days (fraction); higher = more cells survive
Dovitinib + Dasatinib = compound: CN1CCN(c2ccc3nc(-c4c(N)c5c(F)cccc5[nH]c4=O)[nH]c3c2)CC1 [Dovitinib] + Cc1nc(Nc2ncc(C(=O)Nc3c(C)cccc3Cl)s2)cc(N2CCN(CCO)CC2)n1 [Dasatinib] (partner 0.075 µM)
How it was run: (§1)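 After 5 days of treatment, lung cancer cells in 1536-well plates were fixed and stained in a single step (final 0.05% Triton X-100, 1% formaldehyde, 1 ug/ml Hoechst) and their nuclei counted on 4× images. Treatment had been applied by pin tool the day after seeding as one drug alone or as a fixed anchor-drug dose with five library-drug doses (not always all listed) in √10 steps. Relative viability is the nuclei count of treated wells divided by that of vehicle wells, and values are medians of duplicate plates.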

Dovitinib + Alpelisib = compound: CN1CCN(c2ccc3nc(-c4c(N)c5c(F)cccc5[nH]c4=O)[nH]c3c2)CC1 [Dovitinib] + Cc1nc(NC(=O)N2CCC[C@H]2C(N)=O)sc1-c1ccnc(C(C)(C)C(F)(F)F)c1 [Alpelisib] (partner 2 µM)
How it was run: as §1

Dovitinib + Bortezomib = compound: CN1CCN(c2ccc3nc(-c4c(N)c5c(F)cccc5[nH]c4=O)[nH]c3c2)CC1 [Dovitinib] + CC(C)C[C@H](NC(=O)[C@H](Cc1ccccc1)NC(=O)c1cnccn1)B(O)O [Bortezomib] (partner 0.002 µM)
How it was run: as §1

Dovitinib + Palbociclib = compound: CN1CCN(c2ccc3nc(-c4c(N)c5c(F)cccc5[nH]c4=O)[nH]c3c2)CC1 [Dovitinib] + CC(=O)c1c(C)c2cnc(Nc3ccc(N4CCNCC4)cn3)nc2n(C2CCCC2)c1=O [Palbociclib] (partner 0.5 µM)
How it was run: as §1

| Cell Line | relative viability (Dovitinib + Dasatinib; first compound 0.02 µM) | relative viability (Dovitinib + Dasatinib; first compound 0.06325 µM) | relative viability (Dovitinib + Dasatinib; first compound 0.2 µM) | relative viability (Dovitinib + Dasatinib; first compound 0.6325 µM) | relative viability (Dovitinib + Dasatinib; first compound 2 µM) | relative viability (Dovitinib + Alpelisib; first compound 0.02 µM) | relative viability (Dovitinib + Alpelisib; first compound 0.06325 µM) | relative viability (Dovitinib + Alpelisib; first compound 0.2 µM) | relative viability (Dovitinib + Alpelisib; first compound 0.6325 µM) | relative viability (Dovitinib + Alpelisib; first compound 2 µM) | relative viability (Dovitinib + Bortezomib; first compound 0.02 µM) | relative viability (Dovitinib + Bortezomib; first compound 0.06325 µM) | relative viability (Dovitinib + Bortezomib; first compound 0.2 µM) | relative viability (Dovitinib + Bortezomib; first compound 0.6325 µM) | relative viability (Dovitinib + Bortezomib; first compound 2 µM) | relative viability (Dovitinib + Palbociclib; first compound 0.02 µM) | relative viability (Dovitinib + Palbociclib; first compound 0.06325 µM) | relative viability (Dovitinib + Palbociclib; first compound 0.2 µM) | relative viability (Dovitinib + Palbociclib; first compound 0.6325 µM) | relative viability (Dovitinib + Palbociclib; first compound 2 µM) |
| --- | --- | --- | --- | --- | --- | --- | --- | --- | --- | --- | --- | --- | --- | --- | --- | --- | --- | --- | --- | --- |
| SW 1573 | 0.461 | 0.502 | 0.513 | 0.409 | 0.651 | 0.785 | 0.798 | 0.703 | 0.657 | 0.753 | 0.985 | 1.06 | 0.997 | 1.08 | 1.03 | 0.402 | 0.421 | 0.435 | 0.348 | 0.386 |
| PC-14 | 0.257 | 0.273 | 0.238 | 0.3 | 0.331 | 0.805 | 1.03 | 0.966 | 0.946 | 0.883 | 0.796 | 0.906 | 0.834 | 0.808 | 0.819 | 0.461 | 0.622 | 0.572 | 0.467 | 0.537 |
| COR-L23 | 0.482 | 0.565 | 0.512 | 0.534 | 0.567 | 0.768 | 0.743 | 0.69 | 0.773 | 0.726 | 0.82 | 1.03 | 1.06 | 1.16 | 1.16 | 0.269 | 0.261 | 0.306 | 0.372 | 0.324 |
| HCC-78 | 0.426 | 0.328 | 0.392 | 0.453 | 0.357 | 0.422 |  | 0.384 | 0.364 | 0.316 | 0.636 | 0.486 | 0.531 | 0.567 | 0.355 | 0.437 | 0.468 | 0.511 | 0.54 | 0.522 |
| NCI-H2405 | 0.201 | 0.222 | 0.174 | 0.204 | 0.235 | 0.819 | 0.744 | 0.791 | 0.77 | 0.965 | 0.871 | 0.972 | 1 | 1.08 | 0.969 | 0.511 | 0.516 | 0.546 | 0.504 | 0.556 |
| SK-LU-1 | 0.167 | 0.176 | 0.21 | 0.185 | 0.19 | 0.928 | 0.946 | 0.951 | 0.805 | 1.16 | 0.977 | 0.993 | 1.06 | 1.28 | 1.26 | 0.39 | 0.372 | 0.358 | 0.481 | 0.38 |
| EMC-BAC-2 | 0.362 | 0.284 | 0.341 | 0.299 | 0.202 | 0.784 | 0.772 | 0.701 | 0.687 | 0.736 | 1.05 | 0.995 | 1.08 | 1.05 | 1.04 | 0.551 | 0.493 | 0.539 | 0.502 | 0.518 |
| LCLC-97TM1 | 0.8 | 0.896 | 0.887 | 0.876 | 0.775 | 0.222 | 0.23 | 0.171 | 0.247 | 0.276 | 0.754 | 0.783 | 0.371 | 0.867 | 0.566 | 0.252 | 0.26 | 0.236 | 0.185 | 0.209 |
